{"source": "patent US7829565B2", "about": "“Indole derivatives as serotonin reuptake inhibitors” (Merck Patent GmbH, priority 2003, dated 2010)", "key": {"[1]": {"target": "T1, 5-HT1A receptors (Rattus norvegicus, UniProt P19327)", "T1 construct": "from tissue; host or cells: hippocampus (membranes)", "T1 sequence (P19327 1-422)": "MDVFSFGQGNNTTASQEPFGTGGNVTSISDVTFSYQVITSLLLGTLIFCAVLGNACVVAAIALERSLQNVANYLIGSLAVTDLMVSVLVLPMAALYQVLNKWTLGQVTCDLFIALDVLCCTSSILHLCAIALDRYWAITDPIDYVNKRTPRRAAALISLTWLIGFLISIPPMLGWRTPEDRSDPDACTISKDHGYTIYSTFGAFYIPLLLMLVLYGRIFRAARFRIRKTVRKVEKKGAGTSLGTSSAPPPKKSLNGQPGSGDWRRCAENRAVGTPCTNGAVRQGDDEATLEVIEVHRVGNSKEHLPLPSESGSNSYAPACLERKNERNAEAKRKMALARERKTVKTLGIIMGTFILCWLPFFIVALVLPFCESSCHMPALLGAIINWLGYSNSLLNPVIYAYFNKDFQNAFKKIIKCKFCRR", "assay": "5-HT1A receptor binding test", "description": "(§1) In particular, they inhibit 5-HT reuptake. […] Due to a 5-HT-agonistic action and 5-HT reuptake inhibition, serotonin remains in the synaptic cleft for longer and the serotonin action is reinforced. Active ingredients having such properties are therefore particularly suitable as antidepressants and anxiolytics. The compounds of the formula I inhibit the binding of tritiated serotonin ligands to hippocampal receptors (Cossery et al., European J. Pharmacol. 140 (1987), 143-155) and synaptosomal serotonin reuptake (Sherman et al., Life Sci. 23 (1978), 1863-1870).\nThe 5-HT1A-agonistic action can be measured in vitro, for example, with the aid of the (serotonin) binding test, as described by Matzen et al. (J. Med. Chem., 43 (2000), 1149-57), in particular on page 1156 with reference to Eur. J. Pharmacol., 140 (1987), 143-155. In addition, the 5-HT1A-agonistic action can be measured with the aid of the GTPgammaS test described by Newman-Tancredi et al. (Eur. J. Pharmacol. 307 (1996), 107-11).\nMany of the compounds synthesised have nanomolar affinity to the 5-HT1A receptors and nanomolar reuptake inhibition of serotonin. • 5-{4-[4-(5-Cyano-2-oxo-2,3-dihydro-1H-indol-3-yl)butyl]piperazin-1-yl}-benzofuran-2-carboxamide"}, "[2]": {"target": "T2, serotonin reuptake (Rattus norvegicus, UniProt P31652)", "T2 construct": "synaptosomal serotonin reuptake (Sherman et al., Life Sci. 23 (1978), 1863-1870); from tissue", "T2 sequence (P31652 whole entry)": "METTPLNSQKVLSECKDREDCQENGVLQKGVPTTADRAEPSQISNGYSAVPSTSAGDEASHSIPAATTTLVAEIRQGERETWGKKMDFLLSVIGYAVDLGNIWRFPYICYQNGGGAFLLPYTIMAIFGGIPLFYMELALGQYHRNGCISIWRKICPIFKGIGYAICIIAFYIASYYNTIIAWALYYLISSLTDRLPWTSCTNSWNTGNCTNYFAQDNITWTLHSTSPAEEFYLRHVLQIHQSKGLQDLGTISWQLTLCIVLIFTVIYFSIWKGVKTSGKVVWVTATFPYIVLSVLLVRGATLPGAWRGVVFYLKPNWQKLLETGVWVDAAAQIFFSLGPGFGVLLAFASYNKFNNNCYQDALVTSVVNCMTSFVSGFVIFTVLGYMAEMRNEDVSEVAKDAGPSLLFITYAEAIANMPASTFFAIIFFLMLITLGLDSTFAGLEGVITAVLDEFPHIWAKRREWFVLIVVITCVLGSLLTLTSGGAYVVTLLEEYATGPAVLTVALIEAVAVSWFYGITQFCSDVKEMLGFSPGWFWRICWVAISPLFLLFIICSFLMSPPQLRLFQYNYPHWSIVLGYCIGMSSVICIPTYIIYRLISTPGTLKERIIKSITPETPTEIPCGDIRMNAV", "assay": "serotonin reuptake inhibition (SSRI)", "assay_type": "biochemical", "description": "as §1\nFor in-vitro determination of 5-HT reuptake inhibition, synaptosomal reuptake inhibition (Wong et al., Neuropsycho-pharmacology 8 (1993), 22-33) and p-chloroamphetamine antagonism (Fuller et al. J. Pharmacol. Exp. Ther. 212 (1980), 115-119) is measured. Serotonin reuptake inhibition can in addition also be investigated with the aid of the Waldmeier method ex vivo in the brain tissue of mice (European J. Pharmacol. 1977, 46, 387-92), and by microdialysis, which is described by DiChiara (Trends in Pharmacol. Sci., 11 (1990), 116-121). To this end, a physiological solution is perfused through a microdialysis container implanted into a rat brain. During this perfusion, the solution takes up the neurotransmitters liberated in the brain and is subsequently analysed. […]"}}}
{"smiles": "N#Cc1ccc2c(c1)C(CCCCN1CCN(c3ccc4oc(C(N)=O)cc4c3)CC1)C(=O)N2", "note": "(stereo not shown) [5-{4-[4-(5-cyano-2-oxo-2,3-dihydro-1H-indol-3-yl)butyl]-piperazin-1-yl}benzofuran-2-carboxamide]", "values": [{"measurement": "IC50", "setting": "[1]", "result": 1.7, "unit": "nM"}, {"measurement": "IC50", "setting": "[2]", "result": 2.9, "unit": "nM"}]}
{"smiles": "N#Cc1cc2c(CCCCN3CCN(c4ccc5oc(C(N)=O)cc5c4)CC3)c[nH]c2cc1O", "note": "[5-{4-[4-(5-cyano-6-hydroxy-1H-indol-3-yl)butyl]piperazin-1-yl}-benzofuran-2-carboxamide]", "values": [{"measurement": "IC50", "setting": "[1]", "result": 18, "unit": "nM"}, {"measurement": "IC50", "setting": "[2]", "result": 2.7, "unit": "nM"}]}
